This note sets out measurements from patent publication US4649204A, “Dialkanolamine derivatives” (McNeilab, Inc., priority 1985, dated 1987).

This assay relates to decrease in exploratory activity and ptosis induced with tetrabenazine in mice. The assay is described as follows: tetrabenazine (TBZ) antagonism test: antagonism of the decrease in exploratory activity and ptosis induced by tetrabenazine in mice (antidepressant activity). The assay is classed as in vivo. To be noted: test compound 30 minutes prior to 32 mg/kg i.p. tetrabenazine; for ED50: Mus musculus, ip. Here is the method:
The antidepressant activity was determined using the "classical" tetrabenazine (TBZ) antagonism test. […] J. H. Nodine and J. H. Moyer (Lea and Febiger, Philadelphia) p.
Thirty minutes post tetrabenazine, the mice are tested for the presence of normal exploratory activity and ptosis. […] Three to five dosage levels, 10 mice per dosage level, are used per compound.

[1] abbreviates: first figure of EA/Pt, read-out: TBZ ED50, EA (exploratory activity).
[2] abbreviates: second figure of EA/Pt, read-out: TBZ ED50, Pt (ptosis).

Structures are written as SMILES. Counter-ions that a name gives are not always drawn. Like-named read-outs stand apart in the source and are kept apart here.

As for `CC(CN(CCO)CCO)(c1ccccc1)c1ccccc1` [II, 2,2'-[(2,2-Diphenylpropyl)imino]bis[ethanol]Hydrochloride], the ED50 worked out at 28 mg/kg under setting [1] and 35 mg/kg under setting [2].

Turning to `OCCN(CCO)CC(c1ccc(Cl)cc1)c1ccc(Cl)cc1` [Example VII, 2,2'-{[2,2-Bis(4-chlorophenyl)ethyl]imino}bis{ethanol}], the ED50 was around 60 mg/kg under setting [1] and around 60 mg/kg under setting [2].

Consider `OCCN(CCO)CC(c1ccccc1)c1cccs1` (stereo not drawn) [Example VI, 2,2'-{[2-Phenyl]-2-[(2-thienyl)ethyl]imino}bis{ethanol}.HI], for which the ED50 is around 60 mg/kg under setting [1] and around 60 mg/kg under setting [2].

On to `OCCN(CCO)CC(c1ccccc1)c1ccccc1` [Example I, 2,2'-[(2,2-Diphenylethyl)imino]bis[ethanol]Hydrochloride], for which the ED50 is, setting by setting: under setting [1], 15 mg/kg; under setting [2], 1.5 mg/kg.

Take `CC(O)CN(CC(C)O)CC(c1ccccc1)c1ccccc1.Cl` (stereo not drawn) [III, 1,1'-[(2,2-Diphenylethyl)imino]bis[2-propanol].HCl]: the “TBZ ED50, EA (exploratory activity)” value (i.p., first figure of EA/Pt) is listed as 11 mg/kg. The “TBZ ED50, Pt (ptosis)” value (i.p., second figure of EA/Pt) worked out at 6 mg/kg.

Take `CCC(C(c1ccccc1)c1ccccc1)N(CCO)CCO` (stereo not drawn) [Example IV, 2,2'-[(1,1-Diphenyl-2-butyl)imino]bis[ethanol]Fumarate]: the ED50 by setting is: under setting [1], 23 mg/kg; under setting [2], 19 mg/kg.

Take `OCCN(CCO)CC(F)(c1ccccc1)c1ccccc1` [Example VIII, 2,2'-[(2-Fluoro-2,2-diphenylethyl)imino]-bis[ethanol]Dihexamate]: the 50% effective dose (ED50) was found to be 40 mg/kg under setting [1] and 12 mg/kg under setting [2].

As to `CC(C(c1ccccc1)c1ccccc1)N(CCO)CCO` (stereo not drawn) [Example V, 2,2'-[(1,1-Diphenyl-2-propyl)imino]bis[ethanol]Fumarate], the ED50 runs as follows: under setting [1], 13 mg/kg; under setting [2], 8 mg/kg.

Consider `O[C@H]1CN(CC(c2ccccc2)c2ccccc2)C[C@@H]1O` [IX, 1-(2,2-Diphenylethyl)pyrrolidine-3,4-diol Hemifumarate], for which the ED50 is 35 mg/kg under setting [1] and 6 mg/kg under setting [2].

By ED50 is commonly meant the dose at which the effect has come halfway, by size or by number of responders.
